Laboratory results from US10010561B2, “Method of treating cancer using high efficiency self-illuminative nanocomplexes and method of manufacturing the same” (Research & Business Foundation Sungkyunkwan University, priority 2014, dated 2018).
{SH} = thiol linker

What was measured:
[1] = doxorubicin capture in linear nucleic acid, doxorubicin autofluorescence; assay type: physicochemical; conditions: room temperature, 24 hours; linear nucleic acid:doxorubicin 1:1 to 1:20; FIG. 5
Method: To contain doxorubicin in a new nucleic acid-based functional anticancer drug, linear nucleic acids represented by SEQ. ID. NO: 2 ([NT]) and SEQ. ID. NO: 3 (5'-/thiol/[NT]3') were used. To prepare a doxorubicin-binding linear nucleic acid, the linear nucleic acid and doxorubicin were mixed with various concentrations (linear nucleic acid:doxorubicin=1:1 to 1:20) and reacted at room temperature for 24 hours, and autofluorescence of the doxorubicin was detected.

[2] = luminescence activity of m-Rluc8 compared with wild-type luciferase; assay type: biochemical; conditions: versus wild-type luciferase purified by the same method; FIG. 2
Excerpt: To obtain a high efficiency self-luminescent light source, a modified self-illuminative protein (m-Rluc8) in which artificial mutation occurred on an amino acid sequence of a wild-type luciferase was expressed in E. coli and purified. That is, an expression vector (m-Rluc8_pPAL7) into which the modified self-illuminative protein (m-Rluc8) consisting of an amino acid sequence (SEQ. ID. NO: 1) shown in FIG. 1 was inserted was manufactured, transformed into and expressed in E. coli BL21 strain cells and then purified, thereby obtaining a high purity modified self-illuminative protein (m-Rluc8).

Molecule	maximum doxorubicin binding to 1 μM linear nucleic acid [1]	luminescence activity relative to wild-type luciferase [2]
linear nucleic acid (DNA GTCGCAGGCACATCAGTACAGCCAGATCCGTACCTACTCG; DNA, 5' {SH}, backbone and methylation of C not given here; conjugated to gold)	10 µM	
m-Rluc8: modified self-illuminative protein of SEQ. ID. NO: 1, wild-type Renilla luciferase mutated at 8 sites (protein, Renilla luciferase, ID; NO: 1, wild-type Renilla luciferase mutated at 8 sites) MASKVYDPEQRKRMITGPQWWARCKQMNVLDSFINYYDSEKHAENAVIFLHGNATSSYLWRHVVPHIEPVARCIIPDLIGMGKSGKSGNGSYRLLDHYKYLTAWFELLNLPKKIIFVGHDWGAALAFHYAYEHQDRIKAIVHMESVVDVIESWDEWPDIEEDIALIKSEEGEKMVLENNFFVETVLPSKIMRKLEPEEFAAYLEPFKEKGEVRRPTLSWPREIPLVKGGKPDVVQIVRNYNAYLRASDDLPKLFIESDPGFFSNAIVEGAKKFPNTEFVKVKGLHFLQEDAPDEMGKYIKSFVERVLKNEQ		more than 5.65 fold
